Reference: patent US7838498B2, “Benzylic glycoside derivatives and methods of use” (Theracos, Inc., priority 2007, dated 2010)

How the values were obtained:
human SGLT2 = target: T1, human SGLT2 (Homo sapiens, UniProt P31639); assay: Methyl-α-D-[U-14C]glucopyranoside uptake assay, cells stably expressing human SGLT2; assay type: cell-based; details: HEK293.ETN cells expressing human SGLT2, 1.5 h incubation
T1 construct: A full-length cDNA clone expressing human SGLT2 (GenScript Corporation) was subcloned
T1 sequence (P31639 1-672): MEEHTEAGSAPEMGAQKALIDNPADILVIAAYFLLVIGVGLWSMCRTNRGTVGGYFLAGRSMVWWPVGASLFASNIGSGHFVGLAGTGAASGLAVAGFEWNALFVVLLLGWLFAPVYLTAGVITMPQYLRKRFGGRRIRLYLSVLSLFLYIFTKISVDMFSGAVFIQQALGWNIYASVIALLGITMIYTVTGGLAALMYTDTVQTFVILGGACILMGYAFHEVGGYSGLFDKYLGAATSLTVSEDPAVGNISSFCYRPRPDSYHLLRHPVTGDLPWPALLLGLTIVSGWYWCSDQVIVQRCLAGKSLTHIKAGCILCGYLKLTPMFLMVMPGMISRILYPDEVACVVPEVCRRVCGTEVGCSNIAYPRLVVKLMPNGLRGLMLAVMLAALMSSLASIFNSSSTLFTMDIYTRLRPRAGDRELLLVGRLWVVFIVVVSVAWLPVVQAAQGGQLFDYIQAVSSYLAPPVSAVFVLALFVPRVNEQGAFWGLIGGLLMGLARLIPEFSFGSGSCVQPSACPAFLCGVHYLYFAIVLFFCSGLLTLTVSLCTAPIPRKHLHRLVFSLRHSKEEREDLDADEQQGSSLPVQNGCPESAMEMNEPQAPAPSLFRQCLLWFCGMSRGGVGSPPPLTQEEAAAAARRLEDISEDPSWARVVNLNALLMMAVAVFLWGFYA
Text: A full-length cDNA clone expressing human SGLT2 (GenScript Corporation) was subcloned into […] and Not I sites of pEAK15 expression vector. Clones harboring the cDNA inserts were identified by restriction analysis.
Plasmid containing human SGLT2 was linearized with Nsi I and purified by agarose gel electrophoresis. Using Lipofectamine 2000 Transfection Reagent (Invitrogen Corporation), DNA was transfected into HEK293.ETN cells and cultured in Dulbecco's Modified Eagle Medium (DMEM) containing 10% fetal bovine serum (FBS) at 37° C. under 5% CO2 for 24 h. Transfectants were selected in the same growth medium supplemented with puromycin (Invitrogen Corporation) for two weeks. Puromycin-resistant cells were recovered and seeded on a fresh 96-well plate (single cell per well) and cultured in the presence of puromycin until cells became confluent. Puromycin-resistant clones were evaluated for SGLT2 activity in the methyl-α-D-[U-^14C]glucopyranoside uptake assay described below.
(§1) Cells expressing SGLT1 or SGLT2 were seeded on 96-well ScintiPlate scintillating plates (PerkinElmer, Inc.) in DMEM containing 10% FBS (1×10^5 cells per well in 100 μL medium) incubated at 37° C. under 5% CO2 for 48 h prior to the assay. Cells were washed twice with 150 μL of either sodium buffer (137 mM NaCl, 5.4 mM KCl, 2.8 mM CaCl2, 1.2 mM MgCl2, 10 mM tris(hydroxymethyl)aminomethane/N2-hydroxyethylpiperazine-N′-ethanesulfonic acid [Tris/Hepes], pH 7.2) or sodium-free buffer (137 mM N-methyl-glucamine, 5.4 mM KCl, 2.8 mM CaCl2, 1.2 mM MgCl2, 10 mM Tris/Hepes, pH 7.2). Test compound in 50 μL each of sodium or sodium-free buffer containing 40 μCi/L methyl-α-D-[U-^14C]glucopyranoside (Amersham Biosciences/GE Healthcare), either with (symbols in parentheses) or without (symbols without parentheses) 25% human serum, was added per well of a 96-well plate and incubated at 37° C. with shaking for either 2 h (SGLT1 assay) or 1.5 h (SGLT2 assay). Cells were washed twice with 150 μL of wash buffer (137 mM N-methylglucamine, 10 mM Tris/Hepes, pH 7.2) and methyl-α-D-[U-^14C]glucopyranoside uptake was quantitated using a TopCount scintillation counter (PerkinElmer, Inc.). Sodium-dependent glucopyranoside uptake was measured by subtracting the values obtained with sodium-free buffer from those obtained using sodium buffer (average of triplicate determinations).

human SGLT1 = target: T2, human SGLT1 (Homo sapiens, UniProt P13866); assay: Methyl-α-D-[U-14C]glucopyranoside uptake assay, COS-7 cells expressing human SGLT1; assay type: cell-based; details: COS-7 cells expressing human SGLT1, 2 h incubation
T2 construct: Full-length human SGLT1 cDNA on pDream2.1 expression vector was obtained from GenScript Corporation; host or cells: COS-7 cells (American Type Culture Collection)
T2 sequence (P13866 1-664): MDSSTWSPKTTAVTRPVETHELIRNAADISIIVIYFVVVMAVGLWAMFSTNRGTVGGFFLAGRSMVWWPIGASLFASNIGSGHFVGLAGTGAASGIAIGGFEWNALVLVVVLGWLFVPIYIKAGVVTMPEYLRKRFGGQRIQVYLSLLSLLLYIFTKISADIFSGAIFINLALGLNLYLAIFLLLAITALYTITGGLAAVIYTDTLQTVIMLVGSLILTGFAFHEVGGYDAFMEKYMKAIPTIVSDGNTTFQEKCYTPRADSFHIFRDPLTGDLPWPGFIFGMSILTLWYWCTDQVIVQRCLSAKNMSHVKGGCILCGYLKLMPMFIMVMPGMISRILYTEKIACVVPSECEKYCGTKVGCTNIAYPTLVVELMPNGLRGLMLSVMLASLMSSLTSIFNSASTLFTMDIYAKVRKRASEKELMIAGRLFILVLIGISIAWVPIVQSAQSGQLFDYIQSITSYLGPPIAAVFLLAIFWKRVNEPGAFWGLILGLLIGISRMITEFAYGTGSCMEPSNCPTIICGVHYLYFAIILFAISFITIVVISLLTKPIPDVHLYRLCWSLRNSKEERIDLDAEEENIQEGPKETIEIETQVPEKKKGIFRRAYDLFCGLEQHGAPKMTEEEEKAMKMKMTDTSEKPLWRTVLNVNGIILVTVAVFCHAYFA
Protocol: Full-length human SGLT1 cDNA on pDream2.1 expression vector was obtained from GenScript Corporation and propagated in Escherichia coli strain DH5α using Luria-Bertani (LB) medium containing ampicillin. Plasmid DNA was isolated using the QIAGEN Plasmid Midi Kit (QIAGEN Inc.). […] Transfected cells were stored in DMEM containing 10% dimethyl sulfoxide (DMSO) at −80° C.
as §1

[1] = without human serum (symbols without parentheses)
[2] = with 25% human serum (symbols in parentheses)

| Compound | IC50 (human SGLT2; [1]) [µM] | IC50 (human SGLT1; [1]) [µM] | IC50 (human SGLT2; [2]) [µM] | IC50 (human SGLT1; [2]) [µM] |
| --- | --- | --- | --- | --- |
| CCc1ccc(Cc2cc([C@@H]3O[C@H](CO)[C@@H](O)[C@H](O)[C@H]3O)c(COCCCO)cc2Cl)cc1 [Compound AL, (2S,3R,4R,5S,6R)-2-(4-chloro-5-(4-ethylbenzyl)-2-((3-hydroxypropoxy)methyl)phenyl)-6-(hydroxymethyl)tetrahydro-2H-pyran-3,4,5-triol] | < 1 | > 10 |  |  |
| CCOc1ccc(Cc2cc([C@@H]3O[C@H](CO)[C@@H](O)[C@H](O)[C@H]3O)c(CCOCCF)cc2Cl)cc1 [Compound BH, (2S,3R,4R,5S,6R)-2-(4-chloro-5-(4-ethoxybenzyl)-2-(2-(2-fluoroethoxy)ethyl)phenyl)-6-(hydroxymethyl)tetrahydro-2H-pyran-3,4,5-triol] |  |  | < 1 | 1 to 10 |
| C#CCOCc1cc(Cl)c(Cc2ccc(OCC)cc2)cc1[C@@H]1O[C@H](COC(C)=O)[C@@H](O)[C@H](O)[C@H]1O [Compound CD, ((2R,3S,4R,5R,6S)-6-(4-chloro-5-(4-ethoxybenzyl)-2-((prop-2-ynyloxy)methyl)phenyl)-3,4,5-trihydroxytetrahydro-2H-pyran-2-yl)methyl acetate] |  |  | < 1 | > 10 |
| C#CCOCc1cc(Cl)c(Cc2ccc(CC)cc2)cc1[C@@H]1O[C@H](COC(C)=O)[C@@H](O)[C@H](O)[C@H]1O [Compound BD, ((2R,3S,4R,5R,6S)-6-(4-chloro-5-(4-ethylbenzyl)-2-((prop-2-ynyloxy)methyl)phenyl)-3,4,5-trihydroxytetrahydro-2H-pyran-2-yl)methyl acetate] | < 1 | > 10 |  |  |

Next, values leading:

| IC50 (human SGLT2; [1]) [µM] | IC50 (human SGLT1; [1]) [µM] | IC50 (human SGLT2; [2]) [µM] | IC50 (human SGLT1; [2]) [µM] | Compound |
| --- | --- | --- | --- | --- |
| < 1 | > 10 |  |  | CCc1ccc(Cc2cc([C@@H]3O[C@H](CO)[C@@H](O)[C@H](O)[C@H]3O)c(CCOCC(F)F)cc2Cl)cc1 [Compound AI, (2S,3R,4R,5S,6R)-2-(4-chloro-2-(2-(2,2-difluoroethoxy)ethyl)-5-(4-ethylbenzyl)phenyl)-6-(hydroxymethyl)tetrahydro-2H-pyran-3,4,5-triol] |
| < 1 | > 10 |  |  | CCc1ccc(Cc2cc([C@@H]3O[C@H](CO)[C@@H](O)[C@H](O)[C@H]3O)c(COCCF)cc2Cl)cc1 [Compound BZ, (2S,3R,4R,5S,6R)-2-(4-chloro-5-(4-ethylbenzyl)-2-((2-fluoroethoxy)methyl)phenyl)-6-(hydroxymethyl)tetrahydro-2H-pyran-3,4,5-triol] |
| < 1 | 1 to 10 |  |  | CCc1ccc(Cc2cc([C@@H]3O[C@H](CO)[C@@H](O)[C@H](O)[C@H]3O)c(CCOCCF)cc2Cl)cc1 [Compound AH, (2S,3R,4R,5S,6R)-2-(4-chloro-5-(4-ethylbenzyl)-2-(2-(2-fluoroethoxy)ethyl)phenyl)-6-(hydroxymethyl)tetrahydro-2H-pyran-3,4,5-triol] |
